From ChEMBL document CHEMBL2086385, “Synthesis and antimicrobial evaluation of L-phenylalanine-derived C5-substituted rhodanine and chalcone derivatives containing thiobarbituric acid or 2-thioxo-4-thiazolidinone” (2012)
In brackets after ≈: the same amount, converted by molar mass.

Key:
Assay type in all cases: functional
[1] = test system: Escherichia coli; assay: Antibacterial activity against Escherichia coli CCARM 1356 after 24 hrs by broth microdilution method; conditions: CCARM 1356, 24 h
[2] = test system: Staphylococcus aureus; assay: Antibacterial activity against quinolone-resistant Staphylococcus aureus CCARM 3505 clinical isolate after 24 hrs by broth microdilution method; conditions: CCARM 3505, 24 h
[3] = test system: Staphylococcus aureus; assay: Antibacterial activity against quinolone-resistant Staphylococcus aureus CCARM 3519 clinical isolate after 24 hrs by broth microdilution method; conditions: CCARM 3519, 24 h
[4] = test system: Staphylococcus aureus; assay: Antibacterial activity against methicillin-resistant Staphylococcus aureus CCARM 3506 clinical isolate after 24 hrs by broth microdilution method; conditions: CCARM 3506, 24 h
[5] = test system: Staphylococcus aureus; assay: Antibacterial activity against Staphylococcus aureus KCTC 209 after 24 hrs by broth microdilution method; conditions: KCTC 209, 24 h
[6] = test system: Staphylococcus aureus; assay: Ratio of norfloxacin MIC to compound MIC for methicillin-resistant Staphylococcus aureus CCARM 3506 clinical isolate
[7] = test system: Staphylococcus aureus; assay: Ratio of norfloxacin MIC to compound MIC for quinolone-resistant Staphylococcus aureus CCARM 3519 clinical isolate
[8] = test system: Staphylococcus aureus; assay: Antibacterial activity against methicillin-resistant Staphylococcus aureus CCARM 3167 clinical isolate after 24 hrs by broth microdilution method; conditions: CCARM 3167, 24 h
[9] = test system: Staphylococcus aureus; assay: Ratio of norfloxacin MIC to compound MIC for methicillin-resistant Staphylococcus aureus CCARM 3167 clinical isolate
[10] = test system: Staphylococcus aureus; assay: Ratio of norfloxacin MIC to compound MIC for quinolone-resistant Staphylococcus aureus CCARM 3505 clinical isolate
[11] = test system: Staphylococcus aureus; assay: Antibacterial activity against Staphylococcus aureus KCTC 503 after 24 hrs by broth microdilution method; conditions: KCTC 503, 24 h
[12] = test system: Staphylococcus aureus; assay: Antibacterial activity against Staphylococcus aureus RN4220 after 24 hrs by broth microdilution method; conditions: RN4220, 24 h

SMILES	MIC [1] [mg/L]	MIC [2] [mg/L]	MIC [3] [mg/L]	MIC [4] [mg/L]	MIC [5] [mg/L]	Ratio [6]	Ratio [7]	MIC [8] [mg/L]	Ratio [9]	Ratio [10]	MIC [11] [mg/L]	MIC [12] [mg/L]
O=C(/C=C/c1ccc(/C=C2\SC(=S)N([C@@H](Cc3ccccc3)C(=O)O)C2=O)cc1)c1ccccc1	> 64	8 (≈ 16 µM)	4 (≈ 8.01 µM)	4 (≈ 8.01 µM)	16 (≈ 32 µM)	2	2	4 (≈ 8.01 µM)	2	2	8 (≈ 16 µM)	4 (≈ 8.01 µM)
O=C(/C=C/c1ccc(/C=C2\SC(=S)N([C@@H](Cc3ccccc3)C(=O)O)C2=O)cc1)c1ccccc1F	> 64	8 (≈ 15.5 µM)	8 (≈ 15.5 µM)	4 (≈ 7.73 µM)	16 (≈ 30.9 µM)	2	2	4 (≈ 7.73 µM)	2	2	16 (≈ 30.9 µM)	4 (≈ 7.73 µM)
COc1cccc(C(=O)/C=C/c2ccc(/C=C3\SC(=S)N([C@@H](Cc4ccccc4)C(=O)O)C3=O)cc2)c1	> 64	8 (≈ 15.1 µM)	8 (≈ 15.1 µM)	8 (≈ 15.1 µM)	16 (≈ 30.2 µM)	2	2	8 (≈ 15.1 µM)	2	2	16 (≈ 30.2 µM)	4 (≈ 7.55 µM)
O=C(O)[C@H](Cc1ccccc1)N1C(=O)/C(=C\c2ccc(OCc3ccc(Cl)cc3Cl)cc2)SC1=S	> 64	8 (≈ 14.7 µM)	8 (≈ 14.7 µM)	16 (≈ 29.4 µM)	8 (≈ 14.7 µM)	2	2	8 (≈ 14.7 µM)	2	2	8 (≈ 14.7 µM)	2 (≈ 3.67 µM)
CC(=O)Nc1ccc(C(=O)/C=C/c2ccc(/C=C3\SC(=S)N([C@@H](Cc4ccccc4)C(=O)O)C3=O)cc2)cc1	> 64	4 (≈ 7.19 µM)	4 (≈ 7.19 µM)	2 (≈ 3.59 µM)	16 (≈ 28.7 µM)	2	2	4 (≈ 7.19 µM)	2	2	16 (≈ 28.7 µM)	4 (≈ 7.19 µM)
